This is an account of results in US20160280788A1, “USE OF ANTIBODIES AGAINST ICAM-1 IN THE TREATMENT OF PATIENTS WITH RELAPSED CANCER” (BioInvent International AB, priority 2010, published 2016).

Data set [1] concerns ICAM-1 on RPMI-8226 tumor cells. Put plainly: ICAM-1 expression on MM cells isolated from treated mice (flow cytometry). Format: in vivo, SCID mice. The following applies: disseminated RPMI-8226 model, cells collected at termination. As to the method:
Organs for FACS analysis were collected at scarification of mice, and cells from tissues were prepared by mechanistic dissociation and dispase/collagenase enzymatic digestion (Gibco, France). Cells were stained with anti-human CD38 antibody (PerCP-Cy5, Becton Dickinson), an anti-mouse CD45 (PE, Becton Dickinson) and human ICAM-1 (BI-505 IgG1 AF647, BioInvent) and incubated in the dark for 15 min at room temperature. After the incubation, cells were washed twice and the surface fluorescence of cells was analyzed with a flow cytometer apparatus (LSRII) at the Flow Cytometry Facility of the University of Burgundy.
The health status and behavior of mice was recorded every day and body weight of mice was recorded twice a week. […] Upon termination, bone marrow, spinal cord, adrenal glands and kidneys were collected and examined for ICAM-1 expression on tumor cells. To distinguish cells of human versus murine origin, an anti-mouse CD45 mAb was used CD45. […] In addition, cells were stained with AF647 conjugated anti ICAM-1 mAb and thereafter analyzed in a FACS LSRII. Bone marrow was mechanically dissociated to a single cell suspension whereas adrenal glands, kidneys and spinal cord cells were prepared using a combination of mechanistic dissociation and dispase/collagenase digestion (Gibco, France). Prior to the experiment, dispase and collagenase treatments were shown not to effect ICAM-1 levels on MM cell lines.
For orientation: In flow cytometry, cells or beads pass a laser one at a time.

For data set [2], the system named is ARH-77 cells. Nature of the data set: Disseminated scid/ARH-77 model of multiple myeloma. The following applies: i.v. on Days 7, 10, 13, 16; antibody 2 mg/kg, bortezomib 0.5 mg/kg; vs control. Format: in vivo, scid mice. As to the method:
ARH-77 cells or RPMI-8226 were injected intraveniously into the SCID mice. (FIG. 6A) ARH-77 model. Animals received intravenous injections with antibody at 2 mg/kg or bortezomib (Velcade) at 0.5 mg/kg on Days 7, 10, 13, and 16 (as indicated by arrows in the graph). (FIG. 6B) RPMI-8226-model. BI-505 or control mAb was administered i.v at 2 mg/kg, twice weekly for 8 weeks, bortezomid, at 1 mg/kg, once weekly for 8 weeks, lenalidomide p.o with 2 mg/kg for 2 cycles consisting of 5 days of treatment and 2 days of wash out, melphalan i.v at 3 mg/kg, once weekly for 8 weeks, and dexamethasone (DXH) at 6 mg/kg/inj 3 times/week for 2 consecutive weeks. There were 6-10 mice per treatment group. Statistical significance was calculated using Log-rank Graphpad Prism software and determined at ***p<0.001. (FIG. 6C) To study the ICAM-1 level on human cells, the cells from different organs were stained and gated for CD38+/mCD45−/BI-505+. Left panel indicates the percentage of BI-505 positive cells in CD38+/mCD45 population and right panel the mean fluorescent intensity of the positive cells.
The anti-myeloma effect of BI-505 was examined in a disseminated model of multiple myeloma. The early and advanced disseminated model of multiple myeloma was performed at Oncodesign, Dijon, France. Briefly: 1×10^6 (early) or 5×10^6 (advanced) ARH-77 tumor cells in 200 μL of RPMI 1640 were injected intravenously (i.v) into the caudal vein of female scid mice (D0). Tumor cell injections were performed twenty four to forty eight hours after a whole body irradiation of mice (1.8 Gy, ^60Co, INRA, BRETENNIERES). The treatment was started at D5 (RPMI-8226 model) or D7 ([…] model) except alkeran which was administered at D10. B11 or control mAb was administered i.v. at 2 mg/kg, twice weekly for 8 weeks, bortezomib, at 1 mg/kg, once weekly for 8 weeks, lenalidomide p.o with 2 mg/kg for 2 cycles consisting of 5 days of treatment and 2 days of wash out, melphalan i.v. at 3 mg/kg, once weekly for 8 weeks and dexamethasone at 6 mg/kg, injected 2 consecutive weeks.
The disseminated model of scid/ARH-77 is a well-established experimental model that resembles human multiple myeloma disease progression and disease manifestation in many respects (33). We utilized this model to further characterize IgG B11 anti-myeloma activity (FIG. 6A). Intravenous injection of irradiated scid mice with 1×10^6 ARH-77 cells was previously shown to result in their dissemination and establishment in mouse bone-marrow, and resulting osteolytic bone-lesions and hypercalcemia, and ultimately, in animal paralysis or difficulty of breathing at which time animals were immediately sacrificed. […]

Data set [3] relates to HUVEC and HMVEC endothelial cells. Nature of the data set: PCD in normal endothelial cells. In kind it is cell-based. The settings on record: resting or activated (IFN-γ) cells. The protocol:
Target cells were seeded in 96-well culture plates at a density of 2×10^6 cells/mL culture medium. Titrated concentrations of IgG1 B11 or different negative and positive control antibodies were added to the cells, in the absence or presence of anti-human Fab fragment (Jackson ImmunoResearch) for cross-linking. The cells were then incubated for 16 hours at 37° C. in a humidified atmosphere of 5% CO2. The cells were harvested and stained for Annexin V-488/Propidium Iodide (Invitrogen, Sweden) and analysed using flow cytometer (FACS Calibur, BD Bioscience).

The test system of data set [4] is ICAM-1 expressing tumor cell lines. Nature of the data set: Complement-dependent cytotoxicity in tumor cell lines. Format: cell-based. The settings on record: panel of ICAM-1 expressing tumor cell lines; human serum. As to the method: Target cells were harvested and incubated in RPMI medium with antibodies at 5 μg/mL or at titrated concentrations between 0.01-100 μg/mL for 60 min on ice. Cells were thereafter washed and resuspended in cold medium before dispension into flow cytometry tubes. Treatments were performed in triplicates. Human serum, normal or heat-inactivated, (Sigma, Sweden) was added to tubes and the samples were incubated for 2 h at 37° C. After completed incubation ToPo-Pro-3 was added at a final concentration of 0.3 μM and cells were analyzed for membrane permeabilization using flow cytometry.

For data set [5], the system named is ARH-77 cells. Nature of the data set: Subcutaneous scid/ARH-77 xenograft, prophylactic model. The settings on record: 20 mg/kg twice weekly i.p., commencing one day after tumor cell inoculation.
Protocol: Tumor cells were injected subcutaneously into the left flank of SCID mice. Mice received twice-weekly intraperitoneal injections with BI-505, control antibody or rituximab at doses of 20, 2 and/or 0.2 mg/kg commencing one day after tumor cell inoculation. There were 8 to 10 animals per treatment group. […] Statistical significance was calculated relative to control antibody treatment using Kruskal-Wallis Test (Nonparametric ANOVA) with Dunn's Multiple Comparisons Test (tumor volume) or the log-rank test (mouse survival) using Graphpad Instat or Prism software, respectively. Statistical significance was considered for *p<0.05, **p<0.01, and ***p<0.001.
Tumor cells were injected subcutaneously into the left flank of SCID mice. Mice received twice-weekly intraperitoneal injections with BI-505 at doses of 0.02-20 mg/kg commencing day after tumor cell inoculation. There were 8-10 animals per treatment group. […] Statistical significance was calculated relative to control antibody treatment using Kruskal-Wallis Test (Nonparametric ANOVA) with Dunn's Multiple Comparisons Test (tumor volume) or the log-rank test (mouse survival) using Graphpad Instat or Prism software, respectively. Statistical significance was considered for *p<0.05, **p<0.01, and ***p<0.001. Graphs illustrate representative experiments out of several performed.
(FIG. 7A) ARH-77 cells were injected subcutaneously into the left flank of SCID mice (n=8 per group). Mice were treated with the different BI-505 isotypes twice weekly. […] Statistical significance was calculated relative to control antibody treatment using Kruskal-Wallis Test (Nonparametric ANOVA) with Dunn's Multiple Comparisons Test. Statistical significance was considered for *p<0.05, **p<0.01, and ***p<0.001.
Mice were anaesthetized with a mixture of sevofluran and oxygen prior to myeloma cell inoculation and 1-5×10^6 myeloma cells were then subcutaneously injected in a volume of 100 μl into the left flank.
For data set [6], the system named is ARH-77 tumors. Nature of the data set: Subcutaneous scid/ARH-77 xenograft, established (palpable tumor) model. The settings on record: IgG B11 even at 0.2 mg/kg (100-fold lower dose than rituximab).
Protocol: Mice were anaesthetized with a mixture of sevofluran and oxygen prior to myeloma cell inoculation and 1-5×10^6 myeloma cells were then subcutaneously injected in a volume of 100 μl into the left flank. Treatment with antibodies by intraperitonial (i.p.) injections was started either the day after cell inoculation (prophylactic model) or when tumors reached a size of approximately 100 mm^3 (established model). Antibodies were administrated in PBS in a total volume of 200 μL. Treatment with PBS or isotype control was used as control. Tumors were measured with a digital calliper and the tumor volumes were calculated according to formula: width^2×length×0.52. Animals were sacrificed when the tumor sizes reached the ethical limit of 1.5 cm. Surviving mice were sacrificed after a maximum of 5 months. Blood samples collected from the vena cava were centrifuged at 2500 g for 15 min to obtain serum and the samples were stored at −20° C. Tumors were removed for immunohistochemistry, snap frozen and were kept at −85° C.
A short description of data set [7]: Mouse serum antibody levels by ELISA at end of xenograft experiment. In kind it is in vivo. The settings on record: dose 2 mg/kg; mouse serum at end of experimentation. As to the method:
We next performed a dose-titration experiment to establish IgG B11 in vivo potency and the minimal dose achieving maximal anti-tumor activity, using the scid/ARH-77 model system. […] Mouse serum antibody trough concentrations were determined by ELISA at the end of experimentation. Trough antibody concentrations were then plotted against percent of maximal in vivo anti-tumour activity, and against percent of maximal ICAM-1 receptor occupancy and tumour cell PCD at corresponding antibody concentrations in vitro (FIGS. 3C, 3D, 3E, 3F and 3G). Strikingly, a near perfect correlation between antibody concentration and in vitro tumour cell receptor occupancy, in vitro tumor cell PCD, and in vivo anti-tumour activity was observed, consistent with ICAM-1 dependent direct cell cytotoxicity underlying in vivo anti-tumour activity.
(An ELISA detects its analyte on a solid surface through an enzyme-linked reagent.)

The target in data set [8] is T1, mouse FcγRIV (Mus musculus, UniProt A0A0B4J1G0).
T1 construct: made in house; host or cells: HEK293E (transient)
T1 sequence (A0A0B4J1G0 21-249): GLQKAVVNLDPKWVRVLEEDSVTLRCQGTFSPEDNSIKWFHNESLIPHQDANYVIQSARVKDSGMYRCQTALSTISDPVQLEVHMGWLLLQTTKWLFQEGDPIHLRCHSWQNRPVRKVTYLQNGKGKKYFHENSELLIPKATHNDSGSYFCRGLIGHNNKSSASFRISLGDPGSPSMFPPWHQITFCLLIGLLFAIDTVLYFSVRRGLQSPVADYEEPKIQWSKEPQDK
Nature of the data set: Biacore binding of BI-505 isotype variants to mouse FcγRIV. As to the method: (§1) His-tagged human FcγRIIIa or mouse FcγRIV were expressed transient in adherent HEK293E cells, purified using Ni-NTA chromatography and characterized using SDS-PAGE and/or Biacore. Surface plasmon resonance (SPR) measurements were perfomed using a Biacore 3000 instrument. Goat α-human-F(ab)′2 F(ab)′2 fragment (Jackson laboratories) was immobilised with a CM-5 chip using a standard amine coupling protocol. IgG1 B11, Iga4 B11, or 297Q B11 were diluted to 15 and 60 μg/mL respectively and added to the surface at […] for 3 min. His tagged human FcγRIIIa or mouse FcγRIV were pre-incubated with an α-HIS antibody (R&D Systems) at a 2:1 molar ratio before addition to the chip surface, […], 1 min. After each cycle the surface was regenerated twice with glycine buffer pH 1.7.
A general note: SPR reads the build-up and loss of mass on a sensor chip optically.

The target of data set [9] is T2, human FcγRIIIa (Homo sapiens, UniProt P08637).
T2 construct: made in house; host or cells: HEK293E (transient)
T2 sequence (P08637 17-254): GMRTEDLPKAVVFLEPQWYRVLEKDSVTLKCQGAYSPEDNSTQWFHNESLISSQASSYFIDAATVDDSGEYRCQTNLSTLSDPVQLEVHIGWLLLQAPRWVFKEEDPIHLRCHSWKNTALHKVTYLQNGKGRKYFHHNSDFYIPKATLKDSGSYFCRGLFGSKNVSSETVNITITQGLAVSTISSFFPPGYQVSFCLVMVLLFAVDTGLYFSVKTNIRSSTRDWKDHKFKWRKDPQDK
Nature of the data set: Biacore binding of BI-505 isotype variants to human FcγRIIIa. The protocol: as §1

The test system of data set [10] is B lymphoma cell line (CL-01). Nature of the data set: ADCC of tumor cells with human NK effector cells. Format: cell-based. The following applies: human Natural Killer effector cells. The text has this:
Buffy coats from human donors (ordered through Blodcentralen, Lund) were used to isolate peripheral blood mononuclear cells (PBMCs), and subsequently NK cells. Briefly, peripheral blood components were separated using Ficoll Paque PLUS (Amersham Biosciences, Sweden) in LeucoSep tubes (Greiner Bio-One). The PBMC fraction was removed and thoroughly washed in ice-cold DPBS (Invitrogen), before magnetic labeling and separation of the NK cell population using positive or negative NK cell isolation kits and MACS LS columns (Miltenyi Biotec). The purity of the obtained NK cell fractions was analyzed using flow cytometry, after staining with α-CD56 antibodies (BD Biosciences). Target cells were harvested, and incubated in medium with or without the respective antibodies (2 μg/mL) for 60 min on ice. Cells were thereafter washed and resuspended in cold medium before dispension into FACS tubes. Subsequently, isolated NK cells were diluted in ADCC medium and dispensed together with the respective antibody-coated target cells at varying effector/target cell ratios (40:1, 20:1, 5:1 and 1:1). All experiments were performed in triplicates. After completed incubation ToPo-Pro-3 dye and counting beads (Invitrogen) were added and cells were analyzed for membrane permeabilization using flow cytometry.

Take `N[C@@H](Cc1ccc(N(CCCl)CCCl)cc1)C(=O)O` [AIKERAN, Melphalan]: the “ICAM-1 expression on tumor cells collected from treated mice” value (shortened to “ICAM-1 expression”) in data set [1] is on record as “unchanged, high levels”.

In the case of `Nc1cccc2c1CN(C1CCC(=O)NC1=O)C2=O` (stereo not drawn) [Revlimid, Lenalidomide], in [1], the “ICAM-1 expression” value is “unchanged, high levels”.

With `CC(C)C[C@H](NC(=O)[C@H](Cc1ccccc1)NC(=O)c1cnccn1)B(O)O` [bortezomib, reference compound], in data set [2], the animal survival result is “did not significantly enhance animal survival” and the “time to symptomatic disease onset” value is reported as “insignificantly delayed disease onset”. In [1], the “ICAM-1 expression” value is recorded as “unchanged, high levels”.

As to `CC(=O)O[C@H]1C(=O)[C@@]2(C)[C@H]([C@H](OC(=O)c3ccccc3)[C@]3(O)C[C@H](OC(=O)[C@H](O)[C@@H](NC(=O)c4ccccc4)c4ccccc4)C(C)=C1C3(C)C)[C@]1(OC(C)=O)CO[C@@H]1C[C@@H]2O` [paclitaxel, reference compound], the “PCD induction in normal endothelial cells” value in [3] was “induced significant endothelial cell”.

For rituximab [reference compound], the “induction of CDC” value in [4] is on record as “effectively induced CDC”. For the same molecule, the tumor growth result in [5] is “significant anti-tumor activity albeit less efficaciously”. Also, in [6], the animal survival result is “incapable of reducing tumor growth or promoting animal survival” and the tumor growth result is given as “incapable of reducing tumor growth”.

B1: IgG4: human IgG4 isotype switch variant of B11 (antibody, V domains shown)
VH: EVQLLESGGGLVQPGGSLRLSCAASGFTFSNAWMSWVRQAPGKGLEWVAFIWYDGSNKYYADSVKGRFTISRDNSKNTLYLQMNSLRAEDTAVYYCARYSGWYFDYWGQGTLVTVSS
VL: QSVLTQPPSASGTPGQRVTISCTGSSSNIGAGYDVHWYQQLPGTAPKLLIYDNNNRPSGVPDRFSGSKSGTSASLAISGLRSEDEADYYCQSYDSSLSAWLFGGGTKLTVLG
As for B1, in [7], the “In vivo IgG Levels (serum antibody titers)” value was determined as 13 ± 3.1 µg/mL. For the same molecule, the “binding to murine FcγRIV” value in data set [8] is “but not IgG4 or N297Q-mutant, showed strong binding”. Further, the “binding to human FcγRIIIa” value in data set [9] is recorded as “did not bind to human FcγRIIIa”. In addition, the “ADCC of target tumor cells” value in data set [10] is listed as “did not mediate ADCC”.

B2: N297Q-mutant: FcγR-binding deficient mutant IgG1 isotype switch variant of B11 (antibody, V domains shown)
VH: EVQLLESGGGLVQPGGSLRLSCAASGFTFSNAWMSWVRQAPGKGLEWVAFIWYDGSNKYYADSVKGRFTISRDNSKNTLYLQMNSLRAEDTAVYYCARYSGWYFDYWGQGTLVTVSS
VL: QSVLTQPPSASGTPGQRVTISCTGSSSNIGAGYDVHWYQQLPGTAPKLLIYDNNNRPSGVPDRFSGSKSGTSASLAISGLRSEDEADYYCQSYDSSLSAWLFGGGTKLTVLG
Regarding B2, the “In vivo IgG Levels (serum antibody titers)” value in data set [7] was 9.6 ± 3. μg/mL. In addition, the “binding to murine FcγRIV” value in [8] is listed as “but not IgG4 or N297Q-mutant, showed strong binding”. Also, the “binding to human FcγRIIIa” value in [9] is given as “did not bind to human FcγRIIIa”. Also, the “ADCC of target tumor cells” value in data set [10] is given as “did not mediate ADCC”.
